How the values were obtained:
Assay in all cases: Mass spectroscopy proteomics, semi-quantitative binding affinity of serum proteins (plaqueproteome, Table 2)
Settings in all cases: higher number = stronger affinity
[1] = molecular target: T1, Abeta-42 plaque particles (Homo sapiens, UniProt P05067)
T1 construct: Abeta 1-42
Protocol: Next to isolate serum derived Abeta-42 plaque particles, the plasma or serum samples obtained from AD subjects were first centrifuged at 5,000 rpm for 5 min and the supernatants were transferred to new centrifuge tubes. Next, the supernatants were diluted in PBS to make 50% of the serum and plasma samples and used for incubation with Abeta-42 plaque oligomers/aggregates. Each assay was performed in 1 mL reaction (800 μL of 50% plasma or serum) and 200 μL (30 μg) of the Abeta-42 aggregates and the mixtures were incubated at 37° C. for 1 hr. To the mixture Thioflavin S dye (120 μg) was added and the sample was incubated for additional 30 min at 37° C. After the incubation, the mixture was directly used for sample acquisition using flow cytometer (FACS ARIA II, BD Biosciences, San Jose, Calif.). After initial detection of Abeta-42 plaque particles in the acquisition blot, gates were drawn in fluorescent dot blot to separately sort and isolate fluorescently labeled Abeta-42 particles.
(§1) For preparing trypsin digested peptide sequences, the isolated plaque particles were centrifuged at 10000 rpm for 5 min and the pellet containing plaque particles was resuspended in 100 μl PBS buffer. Stock solutions of digestion buffer (Ammonium Biocarbonate 50 mM), reducing buffer (DDT 100 mM) and alkylation buffer (lodoaceamide 100 mM) were prepared and stored at −20° C. for up to two months. For trypsin digestion, 100 μl of each plaque particles (2000 of Abeta-42, cholesterol, Tau and alpha-synuclein) were precipitated using cold acetone −80° C. by adding 4X's the volume. The samples were placed on dry ice for 10 min with intermittent vortex. Next, the samples were centrifuged at 4° C. at 10000 G for 10 min. Top layer of acetone was carefully removed from the tube with care not to disturb the plaque particles pellet. The samples were speed-vac for 10 min to ensure all acetone has been boiled away. The plaque particles pellet were reconstituted with 15 μl 8M Urea 100 mM Ammonium bicarbonate stock and 20 μl protease max solution. The protease max solution (Promega, Madison, Wis.) was prepared from stock by adding 60 μl 50 mM Ammonium bicarbonate and used for 3 solution digests (20 μl each). […] The tubes were incubated at 55° C. for 30 minutes. The tubes were then removed and brought to the room temperature followed by addition of 3.2 μl of 1M acrylamide and incubated at room temperature for 30 minutes. To the sample, 63 μL of 50 mM Ammonium bicarbonate was added for a final volume of 98 μl and 2 μl of trypsin (10 μg, Trypsin/Lys C Mix). After mixing the solution with pipet the samples were incubated at 37° C. overnight. After the overnight digest, the tryptic digest were quenched and acidified by adding 10 μl of 50% formic acid/water stock dilution. The samples were centrifuged at 10000 G for 2 minutes and purified using stage tip and used for MS/Mass analysis.
(§2) All MS/MS samples were analyzed using Sequest (Thermo Fisher Scientific, San Jose, Calif., USA; version 1.0). Sequest was set up to search the SUMS_uniprot_Human database (35847 entries) assuming the digestion enzyme strict trypsin. Sequest was searched with a fragment ion mass tolerance of 1.00 Da and a parent ion tolerance of 20 PPM. Propionamide of cysteine was specified in Sequest as a fixed modification. Oxidation of methionine and phospho of serine, threonine and tyrosine were specified in Sequest as variable modifications.
Scaffold (version Scaffold_4.2.1, Proteome Software Inc., Portland, Oreg.) was used to validate MS/MS based peptide and protein identifications. […] Protein probabilities were assigned by the Protein Prophet algorithm (Nesvizhskii, Al et al 2003). […] Proteins sharing significant peptide evidence were grouped into clusters. Proteins were annotated with GO terms from NCBI (downloaded Jan. 17, 2014).

[2] = system: Low density cholesterol (Chl small) plaque particles; design: species or system human
Protocol: (§3) The goal was to isolate plaque particles synthesized in the bio-fluids in a relatively pure form to enable their subsequent use for identification of components that contribute to the plaque formation. In order to isolate cholesterol plaque particles, the plasma or serum samples obtained from atherosclerotic subjects were first centrifuged at 5,000 rpm for 5 min and the supernatants were transferred to new centrifuge tubes. Next, the supernatants were diluted in PBS to make 50% of the serum and used for incubation with cholesterol oligomers/aggregates. Each assay was performed in 1 mL reaction (800 μL of 50% plasma or serum) and 200 μL (30 μg) of the Cholesterol aggregates and the mixtures were incubated at 37° C. for 1 hr After the incubation, the mixture was directly used for sample acquisition using flow cytometer (FACS ARIA II, BD Biosciences, San Jose, Calif.). […] In order to isolate these fractions, three sets of gates were drawn in the acquisition blot to separately sort and isolate High density or high complex cholesterol particles, Low density or low complex cholesterol particles and both High and low density cholesterol particles together.
as §1, §2
(§4) Scaffold (version Scaffold_4.2.1, Proteome Software Inc., Portland, Oreg.) was used to validate MS/MS based peptide and protein identifications. […] Protein probabilities were assigned by the Protein Prophet algorithm (Nesvizhskii, Al et al 2003).

[3] = system: High Density cholesterol (Chl Large) plaque particles; design: species or system human
Protocol: as §3, §1, §2, §4

[4] = system: Tau plaque particles; design: species or system human
Protocol: For Tau-74 (74-102) (Exon 3/Insert 2 domain) preparation, 1 mg of Tau-74 was suspended in 1 mL of PBS and the sample was incubated at 37° C. for 2 hrs. Similarly for preparing Tau-275 (275-305) (Repeat 2 domain) 1 mg of the peptide was suspended in 1 mL of PBS and the sample was incubated at 37° C. for 2 hrs. After incubation, all the samples were centrifuged for 5 min. at 5000 rpm to remove precipitate, if any, and the supernatant containing oligomers/aggregates were used for in vitro amyloid plaque particles formation assay. For detecting Tau plaque particles, Thioflavin S (Ex/Em=430 nm/550 nm) amyloid binding fluorescent dye (10 μg) was used in the assay.
Next, to isolate Tau plaque particles, as performed for Abeta-42 and Abeta-28 plaque particles isolation, diluted serum samples were used for incubation separately with Tau-45, Tau-74 and Tau-275 oligomers/aggregates. Each assay was performed in 1 mL reaction (800 μL of 50% plasma or serum) and 200 μL (30 μg) of each Tau aggregates and the mixtures were incubated at 37° C. for 1 hr. To the each mixture Thioflavin S dye (120 μg) was added and the sample was incubated for additional 30 min at 37° C. After the incubation, each sample was directly used for sample acquisition using flow cytometer (FACS ARIA II, BD Biosciences, San Jose, Calif.). After initial detection of Tau plaque particles, gates were drawn in the acquisition blot to separately sort and isolate fluorescently labeled Tau plaque particles.
as §1, §2

[5] = molecular target: T2, alpha-synuclein plaque particles (Homo sapiens, UniProt P37840)
T2 construct: 140 amino acids polypeptide
Protocol: To prepare oligomers/aggregates of human alpha-synuclein (140 amino acids polypeptide), 1 mg of the recombinant alpha-synuclein protein was suspended in 1 mL of PBS and the sample was incubated at 37° C. for 2 hrs. After incubation, all the samples were centrifuged for 5 min. at 5000 rpm to remove precipitate, if any, and the supernatant containing oligomers/aggregates were used in vitro plaque particles formation assay. For detecting alpha-synuclein plaque particles Thioflavin S (Ex/Em=430 nm/550 nm) amyloid binding fluorescent dye (10 μg) was used.
Similarly, to isolate alpha-synuclein plaque particles, diluted plasma or serum samples obtained from AD subjects were used for incubation with alpha-synuclein plaque oligomers/aggregates. Each assay was performed in 1 mL reaction (800 μL of 50% plasma or serum) and 200 μL (30 μg) of the alpha-synuclein aggregates and the mixtures were incubated at 37° C. for 1 hr. To the mixture Thioflavin S dye (120 μg) was added and the sample was incubated for additional 30 min at 37° C. After the incubation, the mixture was directly used for sample acquisition using flow cytometer (FACS ARIA II, BD Biosciences, San Jose, Calif.). After initial detection of alpha-synuclein plaque particles, gates were drawn in the acquisition blot to separately sort and isolate fluorescently labeled alpha-synuclein particles.
as §1, §2
Scaffold (version Scaffold_4.2.1, Proteome Software Inc., Portland, Oreg.) was used to validate MS/MS based peptide and protein identifications.

Substance	Semi-quantitative analysis of proteins binding to different plaque particles: Abeta-42 [1]	Semi-quantitative analysis of proteins binding to different plaque particles: Chl small [2]	Semi-quantitative analysis of proteins binding to different plaque particles: Chl Large [3]	Semi-quantitative analysis of proteins binding to different plaque particles: Tau [4]	Semi-quantitative analysis of proteins binding to different plaque particles: Synuclein [5]
Complement factor B	12	14	9	13	10
Glyceraldehyde-3-phosphate dehydrogenase	5	0	0	0	0
Plasma kallikrein	0	3	1	3	0
Ig kappa chain C region	11	21	17	15	15
Hemoglobin subunit alpha	2	5	4	5	5
Complement C1s subcomponent	0	1	3	2	1
Alpha-2-macroglobulin	32	43	43	45	44
Ig alpha-1 chain C region	9	8	10	12	11
Ig kappa chain V-III region IARC/BL41	0	1	0	2	0
Ig heavy chain V-III region JON	0	1	0	1	1
Ig lambda-2 chain C regions	9	7	5	10	8
Nucleoside diphosphate kinase A	5	0	0	0	4
Antithrombin-III	5	6	8	6	9
Complement component C7	0	6	4	4	1
